Earlier results, collected in patent US20100076052A1, “PERINDOPRIL FORMULATIONS” (priority 2008, published 2010).

solubility in alcohol (alcohol): freely soluble | solubility in chloroform (chloroform): freely soluble | solubility in water (water): 60 % w/w
SMILES: CCCC(N[C@@H](C)C(=O)N1[C@H](C(=O)O)C[C@@H]2CCCC[C@@H]21)C(=O)OCC (stereo partly drawn) [Perindopril erbumine, (2S,3αS,7αS)-1-[(S)—N—[(S)-1-carboxybutyl]alanyl]hexahydro-2-indolinecarboxylic acid, 1-ethyl ester, compound with t-butylamine (1:1)]
